One data set is described as follows: clinical. Conditions: human, in vivo, po.
For data set [1] the following is noted: for Geometric mean area under the concentration‐time curve: AUC type not specified; for CL/F (apparent clearance): Overall (N = 12), healthy Japanese, arithmetic mean (SD); for AUC0‐∞, healthy Japanese (this study) vs ING114580 / Maximum concentration, healthy Japanese (this study) vs ING114580: greater in healthy Japanese participants.
For data set [2] the following is noted: cited from earlier work; for Maximum concentration: studied as individual components, abacavir 600 mg and lamivudine 300 mg.
Data set [3] concerns uridine diphosphate glucuronosyltransferase family 1 member A1 (UGT1A1). Conditions: cited from earlier work.
For data set [4] the following is noted: cited from earlier work.
Data set [5] has as its system adenosine triphosphate–binding cassette subfamily G transport protein (ABCG2). Conditions: cited from earlier work.
[6] abbreviates: N = 12 healthy Japanese, single oral dose, fasted.
Where [7] appears, read: dolutegravir twice‐daily dosing.

One may read the Cmax as the peak of the concentration-time curve. By Tmax is commonly meant the time at which the peak concentration occurs. As a reminder, the half-life is the time needed for the level to fall by half in the phase considered. Low readings indicate rapid decline, high ones slow decline. For orientation: CL/F means the apparent clearance, not corrected for the fraction that reaches the circulation.

Turning to `Nc1nc(NC2CC2)c2ncn([C@H]3C=C[C@@H](CO)C3)c2n1` [Abacavir, abacavir], in “clinical” (both), the Cmax was 5380 ng/mL, the time of peak concentration (Tmax) was determined as 1.01 h, the concentration at 24 h was determined as 6.75 ng/mL and the half-life is 2.84 h. In “clinical” (female), the CL/F was 10.5 mL/min/kg, the concentration peaked (Cmax) at 5770 ng/mL, the Tmax turned out to be 1.51 h and the concentration at 24 h was found to be 6.6 ng/mL. In addition, the half-life in the data set “clinical” (female) was 2.87 h. Besides, in “clinical” (male), the CL/F was 9 mL/min/kg, the concentration peaked (Cmax) at 4600 ng/mL, the time to peak (Tmax) was determined as 0.99 h and the concentration at 24 h amounted to 7.1 ng/mL. For the same compound, the half-life in “clinical” (male) is 2.77 h. For the same compound, in data set [1] (setting [6]), the “Geometric mean CL/F” value is listed as 32.9 L/h, the “Geometric mean maximum plasma concentration” value was 5.22 µg/mL and the “Geometric mean area under the concentration‐time curve” value (“Geometric mean area” for short) was 18200 ng·h/mL. Further, the “CL/F (apparent clearance)” value in data set [1] (single oral dose, fasted) is on record as 33.7 (8.54) L/h. Also, in data set [1], the “AUC0‐∞, healthy Japanese (this study) vs ING114580” value is “≈ 1.3 fold” and the “Maximum concentration, healthy Japanese (this study) vs ING114580” value came out at 1.3 fold. Moreover, the Maximum concentration in data set [2] is 4.26 ± 1.19 µg/mL.

In the case of `C[C@@H]1CCO[C@H]2Cn3cc(C(=O)NCc4ccc(F)cc4F)c(=O)c(O)c3C(=O)N12` [Dolutegravir, dolutegravir], the “Substrate of UGT1A1” value in data set [3] is listed as “substrate”. Besides, in data set [4], the “Exposure in individuals with ABCG2 genetic variant 421AA” value was “demonstrably higher”. Moreover, the “Exposure increase in UGT1A*6 heterozygous individuals” value in data set [4] (evaluation of 9 phase 1/2 clinical studies) is “≈ 1.4 fold”. Further, in data set [4] (population PK models), the “Total magnitude of change in exposure from body weight” value was < 30%. The “Oral bioavailability, higher in women than men” value in data set [4] (population PK) is recorded as “≈ 21%”. Moreover, the “Substrate of ABCG2” value in data set [5] is “substrate”. In the data set “clinical” (both), the peak concentration (Cmax) turned out to be 4210 ng/mL, the time of peak concentration (Tmax) was found to be 3.5 h and the concentration at 24 h was 1150 ng/mL. In “clinical” (female), the CL/F is 0.167 mL/min/kg, the highest level (Cmax) was 4450 ng/mL, the Tmax was determined as 2.98 h and the concentration at 24 h was 1130 ng/mL. Moreover, the half-life in the data set “clinical” (female) was 13.7 h. Moreover, in the data set “clinical” (male), the CL/F is 0.167 mL/min/kg, the maximum concentration (Cmax) came to 3750 ng/mL, the Tmax came to 4 h and the concentration at 24 h was determined as 1180 ng/mL. Besides, the half-life in the data set “clinical” (male) was 14.6 h. Besides, in data set [1] (setting [6]), the “Exposure (geometric mean AUC0‐∞) of dolutegravir vs abacavir and lamivudine” value is given as “≈ 4 times”; the “Geometric mean CL/F” value is reported as 0.678 L/h; the “Geometric mean maximum plasma concentration” value was found to be 4.13 µg/mL; the “tmax relative to abacavir (times more slowly)” value worked out at 3 times. Further, the “Geometric mean area” value in data set [1] (setting [6]) turned out to be 71600 ng·h/mL. Moreover, the “CL/F (apparent clearance)” value in data set [1] (single oral dose, fasted) is 0.691 (0.145) L/h. The “Exposure, this study vs ING115381” value in data set [1] (higher than in healthy Japanese participants given dolutegravir 50 mg alone) was found to be 1.9 fold. Moreover, in data set [2] (setting [7]), the “Cmax (geometric mean)” value was 4150 ng/mL and the “Geometric mean AUC from time 0 to 24 hours” value was 75100 ng·h/mL. Moreover, the “Increase in dolutegravir exposure with atazanavir (UGT1A1 inhibitor)” value in data set [2] (once‐daily dosing with atazanavir) is “≈ 2 fold”.

As for `Nc1ccn([C@@H]2CS[C@H](CO)O2)c(=O)n1` [Lamivudine, lamivudine], in “clinical” (both), the peak level (Cmax) was 3430 ng/mL, the time to peak (Tmax) turned out to be 2.98 h and the concentration at 24 h came to 38.7 ng/mL. Also, in “clinical” (female), the Cmax came out at 3650 ng/mL, the Tmax amounted to 2.98 h and the concentration at 24 h is 32.6 ng/mL. For the same compound, in the data set “clinical” (male), the highest level (Cmax) was 2980 ng/mL, the Tmax was determined as 2.5 h and the concentration at 24 h came to 50.9 ng/mL. Moreover, in data set [1] (setting [6]), the “Geometric mean maximum plasma concentration” value came out at 3.35 µg/mL, the “tmax relative to abacavir (times more slowly)” value is recorded as 3 times and the “Geometric mean area” value stood at 16600 ng·h/mL. Besides, in data set [1], the “AUC0‐∞, healthy Japanese (this study) vs ING114580” value is listed as “≈ 1.3 fold” and the “Maximum concentration, healthy Japanese (this study) vs ING114580” value is reported as 1.6 fold. In addition, the “Median tmax, this study vs EPZ104807” value in data set [1] (higher than previously reported in Japanese participants (abacavir/lamivudine formulation)) is listed as 1.5 fold. Further, the Maximum concentration in data set [2] was 2.04 ± 0.54 µg/mL.

(Values after article PMC8456852 (Clinical Pharmacology in Drug Development, 2021).)
